According to US11802120B2, “Fused cyclic urea derivatives as CRHR2 antagonist” (RaQualia Pharma Inc., priority 2018, dated 2023):
Blank lines part the entries; values can stand above or below the compound they belong to.

Molecular target: T1, human CRHR2-alpha (Homo sapiens, UniProt Q13324)
T1 sequence (Q13324 1-411): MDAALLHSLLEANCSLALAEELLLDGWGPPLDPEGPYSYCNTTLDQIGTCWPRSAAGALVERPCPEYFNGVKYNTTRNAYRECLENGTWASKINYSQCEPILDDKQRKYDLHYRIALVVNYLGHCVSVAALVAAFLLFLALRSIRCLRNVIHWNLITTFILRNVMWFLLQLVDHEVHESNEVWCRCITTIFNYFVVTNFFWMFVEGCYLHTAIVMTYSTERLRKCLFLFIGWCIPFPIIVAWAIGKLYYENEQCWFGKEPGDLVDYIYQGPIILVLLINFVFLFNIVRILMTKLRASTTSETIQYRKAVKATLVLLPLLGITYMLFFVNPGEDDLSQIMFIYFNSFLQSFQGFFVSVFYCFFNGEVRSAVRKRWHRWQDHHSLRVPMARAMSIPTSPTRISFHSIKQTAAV
Test: cAMP functional assay for human CRHR2 (LANCE Ultra cAMP, TR-FRET)
Type: cell-based
Settings: CHO-K1 cells expressing human CRHR2-alpha, agonist human urocortin2 at EC80, cAMP; read-out: IC50 against CRHR2
Procedure, shortened: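 CHO-K1 cells stably expressing each receptor, serum-starved and cryopreserved, were preincubated with compound 30 min at 25° C in HBSS buffer with 0.5 mM IBMX, pH 7.4, then stimulated 30 min with EC80 agonist (urocortin2 for CRHR2, CRF for CRHR1). cAMP read by TR-FRET; IC50 from percent-inhibition curves.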

SMILES: Cc1ncc(Cl)cc1C(=O)N[C@H]1CC[C@H](Cn2c(=O)n(-c3cccc4ncccc34)c3ccccc32)CC1 [Example 345, 5-chloro-2-methyl-N-((1r,4r)-4-((2-oxo-3-(quinolin-5-yl)-2,3-dihydro-1H-benzo[d]imidazol-1-yl)methyl)cyclo-hexyl)nicotinamide]
IC50: < 300 nM

SMILES: Cc1ncc(Cl)cc1C(=O)N[C@H]1CC[C@H](Cn2c(=O)n(-c3ccc4[nH]nc(-c5ccccc5)c4c3)c3ccccc32)CC1 [Example 348, 5-chloro-2-methyl-N-((1r,4r)-4-((2-oxo-3-(3-phenyl-1H-indazol-5-yl)-2,3-dihydro-1H-benzo[d]imidazol-1-yl)methyl)cyclohexyl)nicotinamide]
IC50: < 300 nM

SMILES: CNC(=O)c1ccc(-n2c(=O)n(C[C@H]3CC[C@H](NC(=O)c4cc(Cl)cnc4CC(F)F)CC3)c3ccccc32)cn1 [Example 349, 5-(3-(((1r,4r)-4-(5-chloro-2-(2,2-difluoroethyl)nicotina-mido)cyclohexyl)methyl)-2-oxo-2,3-dihydro-1H-benzo[d]imidazol-1-yl)-N-methyl-picolinamide]
IC50: < 300 nM

SMILES: O=C(N[C@H]1CC[C@H](Cn2c(=O)n(-c3ccc4ncccc4c3)c3ccccc32)CC1)c1cc(Cl)cnc1C(F)(F)F [Example 351, 5-chloro-N-((1r,4r)-4-((2-oxo-3-(quinolin-6-yl)-2,3-dihydro-1H-benzo[d]imidazol-1-yl)methyl)cyclo-hexyl)-2-(trifluoromethyl) nicotinamide]
IC50: < 300 nM

SMILES: O=C(N[C@H]1CC[C@H](Cn2c(=O)n(-c3cnc4ccccc4c3)c3ccccc32)CC1)c1cc(Cl)cnc1C(F)(F)F [Example 352, 5-chloro-N-((1r,4r)-4-((2-oxo-3-(quinolin-3-yl)-2,3-dihydro-1H-benzo[d]imidazol-1-yl)methyl)cyclo-hexyl)-2-(trifluoromethyl) nicotinamide]
IC50: < 300 nM

SMILES: O=C(N[C@H]1CC[C@H](Cn2c(=O)n(-c3cccc4cccnc34)c3ccccc32)CC1)c1cc(Cl)cnc1C(F)(F)F [Example 353, 5-chloro-N-((1r,4r)-4-((2-oxo-3-(quinolin-8-yl)-2,3-dihydro-1H-benzo[d]imidazol-1-yl)methyl)cyclo-hexyl)-2-(trifluoromethyl) nicotinamide]
IC50: < 300 nM

SMILES: O=C(N[C@H]1CC[C@H](Cn2c(=O)n(-c3cncc4ccccc34)c3ccccc32)CC1)c1cc(Cl)cnc1C(F)(F)F [Example 354, 5-chloro-N-((1r,4r)-4-((3-(isoquinolin-4-yl)-2-oxo-2,3-dihydro-1H-benzo[d]imidazol-1-yl)methyl)cyclo-hexyl)-2-(trifluoromethyl) nicotinamide]
IC50: < 300 nM

SMILES: CCc1nc2ncc(-n3c(=O)n(C[C@H]4CC[C@H](NC(=O)c5cc(Cl)cnc5C)CC4)c4ccccc43)cc2o1 [Example 355, 5-chloro-N-((1r,4r)-4-((3-(2-ethyloxazolo[4,5-b]pyridin-6-yl)-2-oxo-2,3-dihydro-1H-benzo[d]imidazol-1-yl)methyl)cyclohexyl)-2-methylnicotinamide]
IC50: < 300 nM

SMILES: Cc1nc2ncc(-n3c(=O)n(C[C@H]4CC[C@H](NC(=O)c5cc(Cl)cnc5C)CC4)c4ccccc43)cc2o1 [Example 356, 5-chloro-2-methyl-N-((1r,4r)-4-((3-(2-methyloxazolo[4,5-b]pyridin-6-yl)-2-oxo-2,3-dihydro-1H-benzo[d]imidazol-1-yl)methyl)cyclohexyl)nicotinamide]
IC50: < 300 nM

SMILES: Cc1ncc(Cl)cc1C(=O)N[C@H]1CC[C@H](Cn2c(=O)n(-c3ccc4ncccc4c3)c3cccnc32)CC1 [Example 358, 5-chloro-2-methyl-N-((1r,4r)-4-((2-oxo-1-(quinolin-6-yl)-1H-imidazo[4,5-b]pyridin-3(2H)-yl)methyl)cyclohexyl) nicotinamide]
IC50: < 300 nM

SMILES: Cc1ncc(Cl)cc1C(=O)N[C@H]1CC[C@H](Cn2c(=O)n(-c3cnc4ccccc4c3)c3cccnc32)CC1 [Example 359, 5-chloro-2-methyl-N-((1r,4r)-4-((2-oxo-1-(quinolin-3-yl)-1H-imidazo[4,5-b]pyridin-3(2H)-yl)methyl)cyclohexyl) nicotinamide]
IC50: < 300 nM

SMILES: O=C(N[C@H]1CC[C@H](Cn2c(=O)n(-c3ccc4ncccc4c3)c3cccnc32)CC1)c1cc(Cl)cnc1C(F)(F)F [Example 360, 5-chloro-N-((1r,4r)-4-((2-oxo-1-(quinolin-6-yl)-1H-imidazo [4,5-b]pyridin-3(2H)-yl)methyl)cyclohexyl)-2-(trifluoromethyl) nicotinamide]
IC50: < 300 nM

SMILES: O=C(N[C@H]1CC[C@H](Cn2c(=O)n(-c3ccc(OCCO)nc3)c3ccccc32)CC1)c1cc(Cl)cnc1C(F)F [Example 365, 5-chloro-2-(difluoromethyl)-N-((1r,4r)-4-((3-(6-(2-hydroxyethoxy)pyridin-3-yl)-2-oxo-2,3-dihydro-1H-benzo[d]imidazol-1-yl)methyl)cyclohexyl)nicotinamide]
IC50: < 300 nM

SMILES: O=C(N[C@H]1CC[C@H](Cn2c(=O)n(-c3ccccc3Cl)c3ccncc32)CC1)c1cc(Cl)cnc1C(F)F [Example 367, 5-chloro-N-((1r,4r)-4-((1-(2-chlorophenyl)-2-oxo-1H-imidazo[4,5-c]pyridin-3(2H)-yl)methyl)cyclohexyl)-2-(difluoromethyl)nicotinamide]
IC50: < 300 nM

SMILES: N#Cc1nccnc1-n1c(=O)n(C[C@H]2CC[C@H](NC(=O)c3cc(Cl)cnc3C(F)F)CC2)c2ccccc21 [Example 369, 5-chloro-N-((1r,4r)-4-((3-(3-cyanopyrazin-2-yl)-2-oxo-2,3-dihydro-1H-benzo[d]imidazol-1-yl)methyl)cyclohexyl)-2-(difluoromethyl)nicotinamide]
IC50: < 300 nM

Next, values leading:

IC50: < 300 nM
SMILES: Cc1ncc(Cl)cc1C(=O)N[C@H]1CC[C@H](Cn2c(=O)n(-c3cnc4ccccc4c3)c3ccccc32)CC1 [Example 346, 5-chloro-2-methyl-N-((1r,4r)-4-((2-oxo-3-(quinolin-3-yl)-2,3-dihydro-1H-benzo[d]imidazol-1-yl)methyl)cyclo-hexyl)nicotinamide]

IC50: < 300 nM
SMILES: Cc1ncc(Cl)cc1C(=O)N[C@H]1CC[C@H](Cn2c(=O)n(-c3cccc4c3cnn4C)c3ccccc32)CC1 [Example 347, 5-chloro-2-methyl-N-((1r,4r)-4-((3-(1-methyl-1H-indazol-4-yl)-2-oxo-2,3-dihydro-1H-benzo[d]imidazol-1-yl)methyl)cyclohexyl)nicotinamide]

IC50: < 300 nM
SMILES: Cc1ncc(Cl)cc1C(=O)N[C@H]1CC[C@H](Cn2c(=O)n(-c3cccc4nccn34)c3ccccc32)CC1 [Example 350, 5-chloro-N-((1r,4r)-4-((3-(imidazo[1,2-a]pyridin-5-yl)-2-oxo-2,3-dihydro-1H-benzo [d]imidazol-1-yl)methyl)cyclohexyl)-2-methylnico-tinamide]

IC50: < 300 nM
SMILES: Cc1cc(OCCO)ncc1-n1c(=O)n(C[C@H]2CC[C@H](NC(=O)c3cc(Cl)cnc3C(F)(F)F)CC2)c2ccccc21 [Example 357, 5-chloro-N-((1r,4r)-4-((3-(6-(2-hydroxyethoxy)-4-methylpyridin-3-yl)-2-oxo-2,3-dihydro-1H-benzo[d]imidazol-1-yl)methyl)cyclohexyl)-2-(trifluoromethyl)nicotinamide]

IC50: < 300 nM
SMILES: O=C(N[C@H]1CC[C@H](Cn2c(=O)n(-c3ccc4ncccc4c3)c3cccnc32)CC1)c1cc(Cl)cnc1C(F)F [Example 361, 5-chloro-2-(difluoromethyl)-N-((1r,4r)-4-((2-oxo-1-(quinolin-6-yl)-1H-imidazo[4,5-b]pyridin-3(2H)-yl)methyl)cyclohexyl) nicotinamide]

IC50: < 300 nM
SMILES: O=C(N[C@H]1CC[C@H](Cn2c(=O)n(-c3ccc4ncccc4c3)c3ncccc32)CC1)c1cc(Cl)cnc1C(F)F [Example 362, 5-chloro-2-(difluoromethyl)-N-((1r,4r)-4-((2-oxo-3-(quinolin-6-yl)-2,3-dihydro-1H-imidazo[4,5-b]pyridin-1-yl)methyl)cyclohexyl)nicotinamide]

IC50: < 300 nM
SMILES: CNC(=O)c1cc(C)c(-n2c(=O)n(C[C@H]3CC[C@H](NC(=O)c4cc(Cl)cnc4C(F)F)CC3)c3ccccc32)cn1 [Example 363, 5-(3-(((1r,4r)-4-(5-chloro-2-(difluoromethyl)nicotinamido)cyclohexyl)methyl)-2-oxo-2,3-dihydro-1H-benzo[d]imidazol-1-yl)-N,4-dimethylpicolinamide]

IC50: < 300 nM
SMILES: Cc1nccc(-n2c(=O)n(C[C@H]3CC[C@H](NC(=O)c4cc(Cl)cnc4C(F)F)CC3)c3ccccc32)c1C [Example 364, 5-chloro-2-(difluoromethyl)-N-((1r,4r)-4-((3-(2,3-dimethyl-pyridin-4-yl)-2-oxo-2,3-dihydro-1H-benzo[d]imidazol-1-yl)methyl)cyclohexyl)nicotinamide]

IC50: < 300 nM
SMILES: O=C(N[C@H]1CC[C@H](Cn2c(=O)n(-c3ccccc3Cl)c3ncccc32)CC1)c1cc(Cl)cnc1C(F)F [Example 366, 5-chloro-N-((1r,4r)-4-((3-(2-chlorophenyl)-2-oxo-2,3-dihydro-1H-imidazo[4,5-b]pyridin-1-yl)methyl)cyclo-hexyl)-2-(difluoromethyl) nicotinamide]

IC50: < 300 nM
SMILES: N#Cc1ncccc1-n1c(=O)n(C[C@H]2CC[C@H](NC(=O)c3cc(Cl)cnc3C(F)F)CC2)c2ccccc21 [Example 368, 5-chloro-N-((1r,4r)-4-((3-(2-cyanopyridin-3-yl)-2-oxo-2,3-dihydro-1H-benzo[d]imidazol-1-yl)methyl)cyclo-hexyl)-2-(difluoromethyl) nicotinamide]
